In US8063090B2, “Mineralocorticoid receptor modulators” (Merck Sharp & Dohme Corp., priority 2007, dated 2011):

Biological target: T1, recombinant rhesus mineralocorticoid receptor (Macaca mulatta, UniProt A0A5F8ATS5)
T1 construct: made in house; host or cells: insect cells infected with recombinant baculovirus; clarified cell lysate used
T1 sequence (A0A5F8ATS5 1-984): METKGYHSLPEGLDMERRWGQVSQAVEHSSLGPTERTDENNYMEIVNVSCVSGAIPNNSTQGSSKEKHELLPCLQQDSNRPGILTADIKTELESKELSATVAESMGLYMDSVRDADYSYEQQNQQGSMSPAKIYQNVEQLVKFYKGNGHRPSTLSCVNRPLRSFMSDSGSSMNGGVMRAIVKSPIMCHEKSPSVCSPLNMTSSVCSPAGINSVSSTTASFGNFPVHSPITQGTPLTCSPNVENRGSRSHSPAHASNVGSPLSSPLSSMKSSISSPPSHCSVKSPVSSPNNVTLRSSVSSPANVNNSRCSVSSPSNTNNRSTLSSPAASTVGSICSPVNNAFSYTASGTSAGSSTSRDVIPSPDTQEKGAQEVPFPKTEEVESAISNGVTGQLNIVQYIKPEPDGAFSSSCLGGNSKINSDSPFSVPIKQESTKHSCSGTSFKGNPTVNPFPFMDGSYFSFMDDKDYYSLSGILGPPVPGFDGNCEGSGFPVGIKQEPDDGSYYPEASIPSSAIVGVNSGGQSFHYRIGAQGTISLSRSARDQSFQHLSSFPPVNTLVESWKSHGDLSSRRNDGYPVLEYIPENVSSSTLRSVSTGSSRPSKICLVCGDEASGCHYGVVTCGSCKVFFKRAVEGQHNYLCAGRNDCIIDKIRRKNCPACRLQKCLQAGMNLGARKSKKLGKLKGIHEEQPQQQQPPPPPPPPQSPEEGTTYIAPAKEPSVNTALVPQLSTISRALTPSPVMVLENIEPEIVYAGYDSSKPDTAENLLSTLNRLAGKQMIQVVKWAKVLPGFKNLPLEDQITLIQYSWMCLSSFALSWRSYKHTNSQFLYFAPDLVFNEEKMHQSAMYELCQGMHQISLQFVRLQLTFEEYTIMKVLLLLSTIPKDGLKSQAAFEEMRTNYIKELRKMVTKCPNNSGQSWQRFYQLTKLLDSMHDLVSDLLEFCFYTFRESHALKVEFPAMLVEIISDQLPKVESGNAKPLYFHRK
Assay: Mineralocorticoid receptor radioligand ([3H]-aldosterone) filter binding assay
Settings: displacement of [3H]-aldosterone, insect cell lysate, 20° C., read-out: Mineralocorticoid receptor binding affinity Ki
Description: Measurement of Mineralocorticoid Receptor Binding Affinity
The binding affinity of compounds for the mineralocorticoid receptor was determined by measuring their ability to prevent binding of radiolabeled aldosterone to recombinant rhesus mineralocorticoid receptor in a traditional filter binding assay protocol.
Rhesus mineralocorticoid receptor cDNA was cloned from a cDNA library using and used to prepare a recombinant baculovirus encoding the rhesus mineralocorticoid receptor coding sequence by standard molecular biological and cell biological methods. […] Cells were collected and lysed. The lysates were clarified by centrifugation and stored at −80 C until use in the radioligand binding assay.
The assays were carried out in 20 mM Hepes, 10 mM Na2MoO4, 10 mM 2-mercaptoethanol, 157 mM sucrose, and 3.7 mM CHAPS. [^3H]-Aldosterone (1 mCi/ml, 70-100 Ci/mmol) was purchased from Perkin Elmer (NET419). Test compounds were dissolved in DMSO and diluted in DMSO to 50 times the desired final concentrations for 3-fold serial dilution dose response curves. A working stock solution of [^3H]-aldosterone was prepared by dilution of the commercial stock to 0.083 μM in assay buffer. The insect cell lysate containing rhesus mineralocorticoid receptor was thawed and diluted to 0.7 mg protein/mL. Assay were started by combining 20 μL of test compound solution, 920 μL of diluted insect cell lysate, and 60 μL of [^3H]-aldosterone working solution in 2-mL 96-well polypropylene square well plates (USA Scientific) at 20° C. The mixture was incubated for 3 hr with continuous agitation on a platform shaker. The mixture was then filtered through 96-well GF/B filter plates (Packard) that had been previously treated with a solution of polyethylenimine (Sigma, P-3143). The filter plate was washed 3 times with 0.5 mL of 50 mM Tris-HCl, pH 7.4 and then dried overnight at 37° C. in a vacuum oven. The bottom of the plate was sealed and 40 μL of Microscint-20 (Packard, 6013621) was added to each well before counting radioactivity with a Topcount plate reader. Non-specific radioligand binding was determined by adding non-radiolabeled aldosterone (0.5 mM in DMSO) to the assay mixture to a final concentration of 10 μM in place of test compound. IC50 and Ki values were determined using a four parameter logistic fit using a customized assay data analyzer software package.

Compound	Ki [nM]
CC(c1ccccc1)n1c(C(c2ccccc2)c2ccccc2)nc2ccccc21 (stereo not shown) [Compound 2-4, 2-(diphenylmethyl)-1-(1-phenylethyl)-1H-benzimidazole]	2090
CC(c1cc(C(F)(F)F)cc(C(F)(F)F)c1)n1ccnc1C(c1ccccc1)c1ccccc1 (stereo not shown) [Compound 1-10, 1-{1-[3,5-bis(trifluoromethyl)phenyl]ethyl}-2-(diphenylmethyl)-1H-imidazole]	1090
FC(F)(F)c1cc(Cn2ccnc2C(c2ccccc2)c2ccccc2)cc(C(F)(F)F)c1 [Compound 1-11, 1-[3,5-bis(trifluoromethyl)benzyl]-2-(diphenylmethyl)-1H-imidazole]	1350
Clc1cc2c(cc1Cn1ccnc1C(c1ccccc1)c1ccccc1)OCO2 [Compound 1-18, 1-[(6-chloro-1,3-benzodioxol-5-yl)methyl]-2-(diphenylmethyl)-1H-imidazole]	1120
CC(c1ccccc1)n1ccnc1C(c1ccccc1)c1ccccc1 (racemic) [Compound 1-5, 2-(diphenylmethyl)-1-(1-phenylethyl)-1H-imidazole]	2860
c1ccc(Cn2c(C(c3ccccc3)c3ccccc3)nc3ccccc32)cc1 [Compound 2-3, 1-benzyl-2-(diphenylmethyl)-1H-benzimidazole]	964
Nc1cccc(Cn2ccnc2C(c2ccccc2)c2ccccc2)c1 [Compound 1-15, 3-{[2-(diphenylmethyl)-1H-imidazol-1-yl]methyl}aniline]	633
COc1ccc(Cn2ccnc2C(c2ccccc2)c2ccccc2)cc1 [Compound 1-7, 2-(diphenylmethyl)-1-(4-methoxybenzyl)-1H-imidazole]	2650
CC(c1cccc(I)c1)n1ccnc1C(c1ccccc1)c1ccccc1 (stereo not shown) [Compound 1-6, 2-(diphenylmethyl)-1-[1-(3-iodophenyl)ethyl]-1H-imidazole]	2600

Now from value to molecule:

Ki [nM]	Compound
587	O=[N+]([O-])c1cccc(Cn2ccnc2C(c2ccccc2)c2ccccc2)c1 [Compound 1-14, 2-(diphenylmethyl)-1-(3-nitrobenzyl)-1H-imidazole]
499	COc1ccc(Br)cc1Cn1ccnc1C(c1ccccc1)c1ccccc1 [Compound 1-17, 1-(5-bromo-2-methoxybenzyl)-2-(diphenylmethyl)-1H-imidazole]
410	FC(F)(F)c1cccc(Cn2ccnc2C(c2ccccc2)c2ccccc2)c1 [Compound 1-8, 2-(diphenylmethyl)-1-[3-(trifluoromethyl)benzyl]-1H-imidazole]
302	COc1cc(OC)cc(C(=O)Nc2cccc(Cn3ccnc3C(c3ccccc3)c3ccccc3)c2)c1 [Compound 1-19, N-(3-{[2-(diphenylmethyl)-1H-imidazol-1-yl]methyl}phenyl)-3,5-dimethoxybenzamide]
298	CC(c1cc(Cl)cc(Cl)c1)n1ccnc1C(c1ccccc1)c1ccccc1 (stereo not shown) [Compound 1-16, 1-[1-(3,5-dichlorophenyl)ethyl]-2-(diphenylmethyl)-1H-imidazole]
287	Ic1cccc(Cn2ccnc2C(c2ccccc2)c2ccccc2)c1 [Compound 1-12, 2-(diphenylmethyl)-1-(3-iodobenzyl)-1H-imidazole]
162	O=C(Nc1cccc(Cn2ccnc2C(c2ccccc2)c2ccccc2)c1)c1cc(Cl)cc(Cl)c1 [Compound 1-20, 3,5-dichloro-N-(3-{[2-(diphenylmethyl)-1H-imidazol-1-yl]methyl}phenyl)benzamide]
134	Cc1cccc(Cn2ccnc2C(c2ccccc2)c2ccccc2)c1 [Compound 1-13, 2-(diphenylmethyl)-1-(3-methylbenzyl)-1H-imidazole]

Tested on: not given
Assay: not given
Settings: in combination with standard CHF therapy, patients suffering from advanced CHF; cited from earlier work

Compound	reduced cardiac related mortality [%]	reduced frequency of hospitalization [%]
CC(=O)S[C@@H]1CC2=CC(=O)CC[C@]2(C)[C@H]2CC[C@@]3(C)[C@@H](CC[C@@]34CCC(=O)O4)[C@H]12 [spironolactone]	30	33
